Results published in patent US20140357512A1, “HISTONE DEACETYLASE (HDAC) BIOMARKERS IN MULTIPLE MYELOMA” (priority 2013, published 2014).

Tested on: human myeloma cell line MM.1S
Experiment: SILAC acetylated-lysine peptide profiling, HDAC inhibitor vs DMSO (light/heavy ratio)
Type: cell-based
Text: An embodiment of the invention comprises utilizing the SILAC method in order to quantitate changes in protein expression between two or more populations of cells. The SILAC method is a technique based on mass spectrometry that detects differences in protein abundance among samples using non-radioactive isotopic labeling. The SILAC method is known in the art, and described in detail in Ong et al., “Stable Isotope Labeling by Amino Acids in Cell Culture, SILAC, as a Simple and Accurate Approach to Expression Proteomics”, Molecular & Cellular Proteomics, vol. 1, pp. 376-386 (2002), which is incorporated herein by reference in its entirety.
Briefly, the SILAC method involves growing two populations of cells in cell culture. The first population of cells is grown in growth media containing normal amino acids (“normal media”). The second population of cells is grown in media lacking a standard essential amino acid (such as lysine), but is then supplemented with a non-radioactive, isotopically labeled form of that essential amino acid (such as lysine labeled with ^13C atoms, rather than normal ^12C atoms), which is called “heavy media”. When the two populations of cells are each growing in the medium, they incorporate the amino acids into all of their proteins. The growth of cells maintained in the heavy media is no different from that in normal media. All peptides containing the heavy amino acids are heavier than their normal counterparts. The cells from each of the two populations of cells are lysed. The lysates from each of the two cell populations are then combined. The combined cell lysates are then analyzed by mass spectrometry. Pairs of chemically identical peptides of different stable isotope composition can be differentiated in a mass spectrometer due to their difference in mass. The ratio of peak intensities in the mass spectrum for such peptide pairs reflects the abundance ratio for the two proteins.
This example describes SILAC studies that were performed to compare the effects of three different HDAC inhibitors (Compound A, Compound B, and tubastatin A) to a control on a human multiple myeloma cell line. The HDAC inhibitors were also compared amongst themselves to determine differences in their effects.
A human myeloma cell line MM.1S was grown using either ^12C (light) or ^13C (heavy) lysine containing culture medium. The “heavy” cells were treated with DMSO as the control, and the “light” cells were treated with a single HDAC inhibitor at 37° C. for 6 hours. The heavy and light cells were lysed, and the lysates were mixed in 1:1 ratio and digested with the protease trypsin. The acetylated lysine containing peptides (due to the action of the HDAC inhibitor) in the digested peptide pool were captured by a non-specific anti-acetylated lysine antibody cocktail (the antibodies identify both light and heavy acetylated peptides), and subjected to mass spectrometry analysis in order to identify thousands of individual peptides.
Thousands of peptides were identified in pairs (^12C and ^13C) due to their known mass differences. The amino acid sequence and quantitative ratio (Light/Heavy) of a given peptide in two differentially treated cell lysates were then determined and annotated with their possible protein (gene) sources.
As stated above, three HDAC inhibitors (Compound A, Compound B, and Tubastatin A) were used. Thus, the SILAC method was performed three times, with a different HDAC inhibitor compared to a control each time. Accordingly, there are three pairs of quantitative data in the table below, i.e., Compound A:DMSO, Compound B:DMSO, and Tubastatin A:DMSO. A cut-off of 1.30 fold of change (increase or decrease) was then used to determine “changed” or “+” in the table, and any peptides with a fold of change less than 1.3 fold were determined to be “unchanged” or “0” in the table. Those peptides that were not identified were marked as “NA” in the table. […]

O=C(CCCCCCNC(=O)c1cnc(N(c2ccccc2)c2ccccc2)nc1)NO [Compound A, 2-(diphenylamino)-N-(7-(hydroxyamino)-7-oxoheptyl)pyrimidine-5-carboxamide]
L/H ratio of acetylated peptide FIK(ac)IDGK (SEQ ID NO: 660, 40S ribosomal protein S4 X isoform [71], RPS4X): 0.57 log 2 | L/H ratio of acetylated peptide LAMVK(ac)AEPDVK (SEQ ID NO: 661, NADH dehydrogenase [ubiquinone] 1 alpha subcomplex subunit 5 [60], NDUFA5): 0.58 log 2 | L/H ratio of acetylated peptide NEK(ac)LFYR (SEQ ID NO: 662, NADP-dependent malic enzyme mitochondrial [119], ME3): 0.58 log 2 | L/H ratio of acetylated peptide K(ac)FVCPECSK (SEQ ID NO: 663, Isoform 1 of Transcription factor Sp3 [680], SP3): 0.58 log 2 | L/H ratio of acetylated peptide DLSLDDFK(ac)GK (SEQ ID NO: 664, Thioredoxin-dependent peroxide reductase mitochondrial [91], PRDX3): 0.58 log 2 | L/H ratio of acetylated peptide DLTDYLMK(ac)ILTER (SEQ ID NO: 665, Beta-actin-like protein 2 [192], ACTBL2): 0.58 log 2 | L/H ratio of acetylated peptide HGASPELQK(ac)QIR (SEQ ID NO: 666, Peroxisomal membrane protein 11B [43], PEX11B): 0.58 log 2 | L/H ratio of acetylated peptide LNQLK(ac)PGLQYK (SEQ ID NO: 667, Isoform 5 of Interleukin enhancer-binding factor 3 [413], ILF3): 0.59 log 2 | L/H ratio of acetylated peptide ISK(ac)LYGDLK (SEQ ID NO: 668, cDNA FLJ61478 highly similar to Succinate dehydrogenase (ubiquinone) flavoprotein subunit mitochondrial [541], SDHA): 0.59 log 2 | L/H ratio of acetylated peptide LTSDDVK(ac)EQIYK (SEQ ID NO: 669, 40S ribosomal protein S13 [34], RPS13): 0.60 log 2 | L/H ratio of acetylated peptide SCNCLLLK(ac)[…] (SEQ ID NO: 670, Isoform alpha-enolase of Alpha-enolase [343], ENO1): 0.60 log 2 | L/H ratio of acetylated peptide […](ac)FLIK (SEQ ID NO: 671, Methyltransferase-like protein 7A [105], METTL7A): 0.60 log 2 | L/H ratio of acetylated peptide […](ac)QLK (SEQ ID NO: 672, Annexin A6 [442], ANXA6): 0.60 log 2 | L/H ratio of acetylated peptide EVK(ac)LLLLGAGESGK (SEQ ID NO: 673, Guanine nucleotide-binding protein G(k) subunit alpha [35], GNAI3): 0.60 log 2 | L/H ratio of acetylated peptide […](ac)LR (SEQ ID NO: 674, Isoform 1 of Vesicle-associated membrane protein-associated protein A [125], VAPA): 0.60 log 2 | L/H ratio of acetylated peptide YNWSAK(ac)AK (SEQ ID NO: 675, 60S ribosomal protein L37 [52], RPL37): 0.60 log 2 | L/H ratio of acetylated peptide GNK(ac)PWISLPR (SEQ ID NO: 676, 40S ribosomal protein S4 X isoform [233], RPS4X): 0.60 log 2 | L/H ratio of acetylated peptide […](ac)NK (SEQ ID NO: 677, Isoform Long of ES1 protein homolog mitochondrial [233], C21orf33): 0.61 log 2 | L/H ratio of acetylated peptide LENDK(ac)SFR (SEQ ID NO: 678, Isoform 1 of Enoyl-CoA delta isomerase 1 mitochondrial [89], ECI1): 0.61 log 2 | L/H ratio of acetylated peptide LVAMK(ac)FLR (SEQ ID NO: 679, Isoform 1 of Nucleoside diphosphate kinase B [39], NME1, NME2, NME1-NME2): 0.61 log 2 | L/H ratio of acetylated peptide KVPFGK(ac)TYCCDLK (SEQ ID NO: 680, Mitochondrial carrier homolog 2 [293], MTCH2): 0.62 log 2 | L/H ratio of acetylated peptide TK(ac)[…] (SEQ ID NO: 681, Isoform 1 of Structural maintenance of chromosomes protein 2 [1160], SMC2): 0.62 log 2 | L/H ratio of acetylated peptide LAQLEEAK(ac)[…] (SEQ ID NO: 682, ATP synthase subunit b mitochondrial [139], ATP5F1): 0.63 log 2 | L/H ratio of acetylated peptide IPVPVQK(ac)NIDQQIK (SEQ ID NO: 683, Isoform 1 of Pre-mRNA-splicing factor 38B [227], PRPF38B): 0.64 log 2 | L/H ratio of acetylated peptide […](ac)K (SEQ ID NO: 684, Protein disulfide-isomerase [207], P4HB): 0.64 log 2 | L/H ratio of acetylated peptide VDIRPQLLK(ac)NALQR (SEQ ID NO: 685, Isoform 1 of Heterochromatin protein 1-binding protein 3 [302], HP1BP3): 0.64 log 2 | L/H ratio of acetylated peptide NQK(ac)LTATTQK (SEQ ID NO: 686, Nucleoprotein TPR [748], TPR): 0.64 log 2 | L/H ratio of acetylated peptide YYK(ac)NIGLGFK (SEQ ID NO: 687, 40S ribosomal protein S11 [38], RPS11): 0.65 log 2 | L/H ratio of acetylated peptide SGK(ac)YDLDFK (SEQ ID NO: 688, Isoform alpha-enolase of Alpha-enolase [256], ENO1): 0.65 log 2 | L/H ratio of acetylated peptide LYGDLK(ac)HLK (SEQ ID NO: 689, cDNA FLJ61478 highly similar to Succinate dehydrogenase (ubiquinone) flavoprotein subunit mitochondrial [547], SDHA): 0.65 log 2 | L/H ratio of acetylated peptide VENEAEK(ac)DLQCHAPVR (SEQ ID NO: 690, Isoform 1 of Bromodomain-containing protein 7 [103], BRD7): 0.65 log 2 | L/H ratio of acetylated peptide DSLYK(ac)[…] (SEQ ID NO: 691, Isoform 1 of Clathrin heavy chain 1 [1535], CLTC): 0.65 log 2 | L/H ratio of acetylated peptide TISAK(ac)YAEER (SEQ ID NO: 692, Isoform 1 of Myosin-9 [1459], MYH9): 0.65 log 2 | L/H ratio of acetylated peptide (ac)ASNK(ac)TTLQK (SEQ ID NO: 693, Chromobox protein homolog 3 [5], CBX3): 0.66 log 2 | L/H ratio of acetylated peptide GYLADPAK(ac)FPEAR (SEQ ID NO: 694, 39S ribosomal protein L15 mitochondrial [228], MRPL15): 0.66 log 2 | L/H ratio of acetylated peptide SCEIK(ac)FLTFK (SEQ ID NO: 695, Isoform 2 of 39S ribosomal protein L39 mitochondrial [126], MRPL39): 0.66 log 2
